Values quoted from earlier work in patent US20210361582A1, “COLCHICINE SALICYLATE DERIVATIVES AND METHODS OF TREATMENT” (Murray and Poole Enterprises, LTD., priority 2015, published 2021).

Key:
[1] = at 18 months; 120 patients; conventional treatment with aspirin vs plus colchicine 1.0 to 2.0 mg first day then 0.5 to 1.0 mg/day for 3 months; p=0.004
[2] = at 18 months; 84 patients; aspirin alone vs plus colchicine 1.0-2.0 mg first day then 0.5-1.0 mg/d for 6 months
[3] = colchicine 0.5 mg/day in addition to statins and other standard secondary prevention therapies; 532 patients; median 3 years
[4] = in vivo

| SMILES | recurrence rate (primary end point) [1] | recurrence rate (actuarial rates) [2] | prevention of cardiovascular events [3] | bioavailability, inter patient variations ([4]; human) | bioavailability [4] | second peak (resorption from colon), share of totally absorbed colchicine [4] |
| --- | --- | --- | --- | --- | --- | --- |
| CC(=O)Oc1ccccc1C(=O)O [aspirin] | 32.3% | 50.6% |  |  |  |  |
| COc1cc2c(c(OC)c1OC)-c1ccc(OC)c(=O)cc1[C@@H](NC(C)=O)CC2 [colchicine, N[5,6,7,9-tetrahydro-1,2,3,10-tetratmethoxy 9-oxobenzo[a]heptalen-7-yl],(S)-acetamide] | 10.7% | 24.0% | appeared effective | 20-80% | ca. 45% | about 50% |
